Source: ChEMBL document CHEMBL1201862, “PubChem BioAssay data set” (2004)
Calls of active or inactive are those of the source.

Legend:
[1] = biological target: T1, Apoptotic protease-activating factor 1 (Homo sapiens, UniProt O14727); assay: SAR analysis of small molecule Activators of Apaf-1 in a Fluorescent assay.; format: functional; details: read-out: EC50_Mean;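 also: caspase-3 cleavage of fluorogenic Rh110 DEVD substrate downstream of apoptosome activation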
T1 sequence (O14727 whole entry): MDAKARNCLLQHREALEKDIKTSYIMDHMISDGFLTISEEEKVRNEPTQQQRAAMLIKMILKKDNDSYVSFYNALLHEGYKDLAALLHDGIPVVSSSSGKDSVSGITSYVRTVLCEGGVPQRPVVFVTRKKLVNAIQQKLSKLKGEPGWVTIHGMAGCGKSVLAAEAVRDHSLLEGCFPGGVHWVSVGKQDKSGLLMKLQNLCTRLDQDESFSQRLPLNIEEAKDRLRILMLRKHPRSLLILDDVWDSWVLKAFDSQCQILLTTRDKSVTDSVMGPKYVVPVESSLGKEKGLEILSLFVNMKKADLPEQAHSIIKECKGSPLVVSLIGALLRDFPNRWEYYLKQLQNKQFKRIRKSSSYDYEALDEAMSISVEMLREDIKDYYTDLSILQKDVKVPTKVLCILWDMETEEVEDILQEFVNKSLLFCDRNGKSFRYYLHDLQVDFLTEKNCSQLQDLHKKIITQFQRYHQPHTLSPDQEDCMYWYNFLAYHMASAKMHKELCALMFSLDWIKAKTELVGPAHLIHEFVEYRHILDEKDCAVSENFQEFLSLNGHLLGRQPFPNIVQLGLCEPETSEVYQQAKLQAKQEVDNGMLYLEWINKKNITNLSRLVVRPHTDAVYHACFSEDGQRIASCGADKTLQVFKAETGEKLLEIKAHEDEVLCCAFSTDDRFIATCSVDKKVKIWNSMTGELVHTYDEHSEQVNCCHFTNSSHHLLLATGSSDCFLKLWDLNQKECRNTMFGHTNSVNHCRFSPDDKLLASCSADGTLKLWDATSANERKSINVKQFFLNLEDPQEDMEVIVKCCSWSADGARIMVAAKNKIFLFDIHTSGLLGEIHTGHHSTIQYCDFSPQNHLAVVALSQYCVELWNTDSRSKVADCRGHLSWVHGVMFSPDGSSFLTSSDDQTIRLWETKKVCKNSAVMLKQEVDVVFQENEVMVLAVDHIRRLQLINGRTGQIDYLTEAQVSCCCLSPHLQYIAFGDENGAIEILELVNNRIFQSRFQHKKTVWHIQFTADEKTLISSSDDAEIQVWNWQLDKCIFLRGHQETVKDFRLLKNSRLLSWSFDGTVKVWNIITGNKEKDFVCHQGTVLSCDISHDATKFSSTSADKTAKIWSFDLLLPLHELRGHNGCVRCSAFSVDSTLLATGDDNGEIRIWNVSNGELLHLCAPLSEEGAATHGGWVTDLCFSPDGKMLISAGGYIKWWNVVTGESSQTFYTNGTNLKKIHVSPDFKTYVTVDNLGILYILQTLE

[2] = biological target: T2, Mannose-6-phosphate isomerase (Homo sapiens, UniProt P34949); assay: MPI inhibition at elevated mannose 6-phosphate – biochemical, fluorescence intensity, high mannose 6-phosphate, primary screen (AID 1220)
T2 sequence (P34949 whole entry): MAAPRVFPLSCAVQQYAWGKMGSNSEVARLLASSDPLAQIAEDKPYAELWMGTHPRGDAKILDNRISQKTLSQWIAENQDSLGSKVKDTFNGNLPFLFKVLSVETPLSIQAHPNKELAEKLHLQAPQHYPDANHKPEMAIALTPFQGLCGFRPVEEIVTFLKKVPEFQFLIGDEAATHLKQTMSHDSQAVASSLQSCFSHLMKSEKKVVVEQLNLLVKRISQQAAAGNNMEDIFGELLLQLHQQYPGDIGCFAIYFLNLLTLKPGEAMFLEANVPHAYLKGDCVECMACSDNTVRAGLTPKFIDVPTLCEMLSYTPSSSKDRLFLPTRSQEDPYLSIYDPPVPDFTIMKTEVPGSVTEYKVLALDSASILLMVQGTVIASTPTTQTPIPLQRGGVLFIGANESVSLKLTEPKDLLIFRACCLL

[3] = biological target: Induced myeloid leukemia cell differentiation protein Mcl-1 (Homo sapiens, UniProt Q07820); format: functional
[4] = biological target: Hepatocyte nuclear factor 4-alpha (Homo sapiens, UniProt P41235); format: functional, cell-based;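 also: biochemical luminescence-based dose-response counterscreen measuring inhibition of HNF4 dimerization, run alongside a screen for blockers of ABHD5–perilipin-5 interaction; split luciferase complementation of HNF4 fusion proteins in cell lysate measuring dimerization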
[5] = biological target: Melanocortin receptor 4 (Homo sapiens, UniProt P32245); assay: inhibitors of MC4R cAMP signaling – cell-based, TR-FRET, biased antagonists, dose response (AID 602298); format: functional;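 also: antagonist potency against agonist-stimulated cAMP production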
[6] = cAMP pathway inhibition in counterscreen cell line – TR-FRET cAMP detection, counter-screen for MC4R biased antagonist project, dose response (AID 602305); format: functional, cell-based;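 also: U2OS cells stimulated with forskolin near its EC80 as the cAMP inducer; potency is for inhibition of forskolin-stimulated cAMP signaling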
[7] = viability of PTEN-deleted HCT116 cells – cell-based, HCT116 PTEN knockout, dose response (AID 1047); format: functional;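 also: HCT116 colon tumor cells with PTEN knocked out; cells exposed to compound for 60 hours before readout; potency for loss of cell viability measured by luminescence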
[8] = viability of HCT116 lacking mutant beta-catenin – cell-based, human colon tumor, dose response (AID 1045); format: functional;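 also: HCT116 colon tumor cells with beta catenin knocked out; cells exposed to compound for 60 hours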
[9] = biological target: Tyrosine-protein kinase JAK3 (Homo sapiens, UniProt P52333); format: functional
[10] = biological target: Tyrosine-protein kinase JAK2 (Homo sapiens, UniProt O60674); format: functional;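 also: JAK2 tested as one member of a kinase panel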
[11] = nonselective StAR promoter luciferase inhibitors – cell-based, luminescence, luciferase reporter, counter-screen for LRH-1 inverse agonist project, dose response (AID 651969); format: functional
[12] = biological target: Steroidogenic factor 1 (Homo sapiens, UniProt Q13285); assay: Counterscreen for inverse agonists of the liver receptor homolog-1 (LRH-1; NR5A2): Luminescence-based cell-based high throughput dose response assay to identify inverse agonists of the Steroidogenic Factor 1 Nuclear Receptor (SF1; NR5A1).; format: functional
[13] = biological target: Nuclear receptor subfamily 5 group A member 2 (Homo sapiens, UniProt O00482); format: functional, cell-based;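 also: HEK293T cells transfected with LRH-1 and a StAR promoter luciferase reporter; potency for inhibitors that lower LRH-1 driven reporter light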
[14] = biological target: SWI/SNF-related matrix-associated actin-dependent regulator of chromatin subfamily A member 2 (Homo sapiens, UniProt P51531); assay: Luminescence-based cell-based high throughput dose response assay to identify activators of the function of SWI/SNF related, matrix associated, actin dependent regulator of chromatin, subfamily a, member 2 (SMARCA2, BRM).; format: functional
[15] = biological target: T3, Interleukin-8 (Homo sapiens, UniProt P10145); assay: Dose Response confirmation of uHTS small molecule hits for cystic fibrosis induced NFkb Inhibitors in a PAF-induced IL8 counterscreen.; format: functional; details: read-out: IC50_Mean
[16] = Counterscreen for activators of the function of SWI/SNF related, matrix associated, actin dependent regulator of chromatin, subfamily a, member 2 (SMARCA2, BRM): Luminescence-based cell-based high throughput dose response assay to identify non-selective compounds using the VP16 reporter assay.; format: functional
[17] = biological target: Paired box protein Pax-8 (Homo sapiens, UniProt Q06710); assay: PAX8 transcriptional activity inhibition in RMG-I – RMG-I cells, luciferase, cherry-pick, dose response (AID 687027); format: functional, cell-based;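 also: luciferase reporter driven by Pax8 target thyroperoxidase promoter measured by SteadyGlo luminescence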
[18] = biological target: T3, Interleukin-8; assay: Dose Response confirmation of uHTS small molecule hits for cystic fibrosis induced NFkb Inhibitors in a TNFa-induced IL8 counterscreen.; format: functional; details: read-out: IC50_Mean
[19] = biological target: Potassium voltage-gated channel subfamily KQT member 2 (Rattus norvegicus, UniProt O88943); assay: blockers of KCNQ2 channel current – cell-based, automated electrophysiology, set II, rat KCNQ2, dose response (AID 588637); format: functional
[20] = biological target: Glyceraldehyde-3-phosphate dehydrogenase (Homo sapiens, UniProt P04406)

T3 sequence (P10145 whole entry): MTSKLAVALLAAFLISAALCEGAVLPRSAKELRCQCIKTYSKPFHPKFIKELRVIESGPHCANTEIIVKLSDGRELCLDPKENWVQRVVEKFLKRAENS
Sequence of Melanocortin receptor 4 (P32245 whole entry): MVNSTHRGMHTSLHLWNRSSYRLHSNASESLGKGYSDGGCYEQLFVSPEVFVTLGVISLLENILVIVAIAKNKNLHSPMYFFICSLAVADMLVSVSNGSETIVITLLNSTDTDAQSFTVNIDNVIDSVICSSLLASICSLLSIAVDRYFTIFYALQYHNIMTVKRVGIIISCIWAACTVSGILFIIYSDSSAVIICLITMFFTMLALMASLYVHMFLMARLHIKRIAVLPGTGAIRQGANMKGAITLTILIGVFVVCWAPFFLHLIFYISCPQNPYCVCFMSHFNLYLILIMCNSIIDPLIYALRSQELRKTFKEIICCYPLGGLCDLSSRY
Sequence of Tyrosine-protein kinase JAK2 (O60674 whole entry): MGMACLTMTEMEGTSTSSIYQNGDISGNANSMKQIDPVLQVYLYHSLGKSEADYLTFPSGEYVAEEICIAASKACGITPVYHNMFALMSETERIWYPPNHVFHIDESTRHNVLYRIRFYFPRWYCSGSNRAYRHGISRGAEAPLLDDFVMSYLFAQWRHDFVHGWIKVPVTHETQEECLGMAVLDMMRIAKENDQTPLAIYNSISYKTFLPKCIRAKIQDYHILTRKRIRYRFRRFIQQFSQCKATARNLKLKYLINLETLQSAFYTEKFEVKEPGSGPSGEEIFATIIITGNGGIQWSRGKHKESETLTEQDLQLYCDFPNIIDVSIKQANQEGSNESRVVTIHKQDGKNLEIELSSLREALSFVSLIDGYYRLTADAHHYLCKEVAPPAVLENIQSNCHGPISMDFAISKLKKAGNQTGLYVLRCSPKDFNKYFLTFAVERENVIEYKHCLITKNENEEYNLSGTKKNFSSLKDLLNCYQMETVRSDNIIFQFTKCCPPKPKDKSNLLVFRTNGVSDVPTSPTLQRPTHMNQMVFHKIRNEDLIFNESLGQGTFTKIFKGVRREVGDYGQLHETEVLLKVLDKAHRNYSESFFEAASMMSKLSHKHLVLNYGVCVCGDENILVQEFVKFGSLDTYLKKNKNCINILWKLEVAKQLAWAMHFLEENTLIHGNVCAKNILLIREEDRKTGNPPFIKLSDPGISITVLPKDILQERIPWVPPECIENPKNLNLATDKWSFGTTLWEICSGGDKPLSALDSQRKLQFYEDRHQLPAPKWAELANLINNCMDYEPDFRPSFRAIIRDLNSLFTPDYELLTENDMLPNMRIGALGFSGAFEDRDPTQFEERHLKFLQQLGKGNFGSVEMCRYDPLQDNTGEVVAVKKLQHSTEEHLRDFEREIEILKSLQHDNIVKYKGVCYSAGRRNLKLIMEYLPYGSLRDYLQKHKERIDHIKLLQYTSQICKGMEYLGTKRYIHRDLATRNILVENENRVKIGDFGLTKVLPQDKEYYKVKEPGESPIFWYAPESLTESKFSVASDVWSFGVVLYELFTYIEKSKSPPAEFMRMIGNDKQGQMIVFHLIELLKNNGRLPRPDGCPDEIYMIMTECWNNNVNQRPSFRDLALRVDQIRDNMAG
Sequence of Tyrosine-protein kinase JAK3 (P52333 whole entry): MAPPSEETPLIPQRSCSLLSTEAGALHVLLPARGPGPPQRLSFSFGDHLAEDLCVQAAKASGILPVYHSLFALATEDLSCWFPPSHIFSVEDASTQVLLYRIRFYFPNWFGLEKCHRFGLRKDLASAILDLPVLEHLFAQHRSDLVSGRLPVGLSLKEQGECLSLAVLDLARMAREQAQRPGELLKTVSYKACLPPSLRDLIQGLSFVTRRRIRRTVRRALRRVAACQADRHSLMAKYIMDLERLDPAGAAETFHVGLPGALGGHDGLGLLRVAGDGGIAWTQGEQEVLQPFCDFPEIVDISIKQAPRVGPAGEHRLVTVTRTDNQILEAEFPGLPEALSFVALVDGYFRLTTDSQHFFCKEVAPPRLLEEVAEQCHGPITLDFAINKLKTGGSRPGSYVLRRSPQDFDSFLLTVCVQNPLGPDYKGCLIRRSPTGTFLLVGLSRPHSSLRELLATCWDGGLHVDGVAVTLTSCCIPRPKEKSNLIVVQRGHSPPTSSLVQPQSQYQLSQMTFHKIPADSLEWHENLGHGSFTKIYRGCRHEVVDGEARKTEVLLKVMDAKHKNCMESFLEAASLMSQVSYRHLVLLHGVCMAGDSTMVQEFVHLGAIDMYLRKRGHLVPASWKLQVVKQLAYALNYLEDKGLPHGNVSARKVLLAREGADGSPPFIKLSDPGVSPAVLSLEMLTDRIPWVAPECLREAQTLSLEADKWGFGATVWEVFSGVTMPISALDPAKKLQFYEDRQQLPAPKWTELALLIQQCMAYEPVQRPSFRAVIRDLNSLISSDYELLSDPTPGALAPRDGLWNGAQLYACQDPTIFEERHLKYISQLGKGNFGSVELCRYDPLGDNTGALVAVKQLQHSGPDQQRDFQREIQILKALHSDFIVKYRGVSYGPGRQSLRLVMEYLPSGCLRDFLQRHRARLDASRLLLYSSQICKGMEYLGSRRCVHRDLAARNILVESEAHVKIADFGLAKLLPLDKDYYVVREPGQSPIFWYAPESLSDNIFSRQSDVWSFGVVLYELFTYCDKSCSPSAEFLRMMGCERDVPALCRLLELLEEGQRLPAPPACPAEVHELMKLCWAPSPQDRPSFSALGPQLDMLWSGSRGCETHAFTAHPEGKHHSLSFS
Sequence of Potassium voltage-gated channel subfamily KQT member 2 (O88943 whole entry): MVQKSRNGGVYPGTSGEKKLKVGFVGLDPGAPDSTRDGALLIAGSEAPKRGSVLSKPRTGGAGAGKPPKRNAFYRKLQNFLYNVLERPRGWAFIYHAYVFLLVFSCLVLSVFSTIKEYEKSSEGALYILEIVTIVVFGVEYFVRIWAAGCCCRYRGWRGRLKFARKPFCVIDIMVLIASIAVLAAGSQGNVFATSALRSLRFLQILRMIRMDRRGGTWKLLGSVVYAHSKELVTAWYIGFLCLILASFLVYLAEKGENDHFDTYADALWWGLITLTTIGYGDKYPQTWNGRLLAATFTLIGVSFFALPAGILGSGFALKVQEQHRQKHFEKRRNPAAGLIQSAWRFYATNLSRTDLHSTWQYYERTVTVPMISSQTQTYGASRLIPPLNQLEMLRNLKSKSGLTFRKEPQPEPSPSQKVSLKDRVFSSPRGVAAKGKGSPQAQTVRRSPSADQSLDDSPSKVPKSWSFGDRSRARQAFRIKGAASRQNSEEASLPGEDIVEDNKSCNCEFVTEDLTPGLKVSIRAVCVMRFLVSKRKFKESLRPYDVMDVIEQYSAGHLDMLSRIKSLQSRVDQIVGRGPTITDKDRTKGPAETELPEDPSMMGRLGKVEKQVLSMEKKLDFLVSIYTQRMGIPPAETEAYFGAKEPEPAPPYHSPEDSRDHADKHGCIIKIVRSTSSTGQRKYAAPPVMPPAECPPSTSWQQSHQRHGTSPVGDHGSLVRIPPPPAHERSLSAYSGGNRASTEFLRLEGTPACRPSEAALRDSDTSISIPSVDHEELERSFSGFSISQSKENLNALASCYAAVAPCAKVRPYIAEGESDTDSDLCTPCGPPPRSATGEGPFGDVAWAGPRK
Sequence of Induced myeloid leukemia cell differentiation protein Mcl-1 (Q07820 whole entry, the tested form may be a part): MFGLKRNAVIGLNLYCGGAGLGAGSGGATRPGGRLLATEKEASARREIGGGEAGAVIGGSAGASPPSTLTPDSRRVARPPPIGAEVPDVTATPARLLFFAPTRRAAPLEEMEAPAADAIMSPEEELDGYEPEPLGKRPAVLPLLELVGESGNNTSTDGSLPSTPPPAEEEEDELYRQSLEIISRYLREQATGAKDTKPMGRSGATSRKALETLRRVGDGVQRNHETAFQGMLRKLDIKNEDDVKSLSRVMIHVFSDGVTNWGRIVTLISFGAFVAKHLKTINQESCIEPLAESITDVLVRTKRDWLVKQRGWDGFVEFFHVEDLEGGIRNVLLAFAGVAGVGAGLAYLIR
Sequence of Hepatocyte nuclear factor 4-alpha (P41235 whole entry, the tested form may be a part): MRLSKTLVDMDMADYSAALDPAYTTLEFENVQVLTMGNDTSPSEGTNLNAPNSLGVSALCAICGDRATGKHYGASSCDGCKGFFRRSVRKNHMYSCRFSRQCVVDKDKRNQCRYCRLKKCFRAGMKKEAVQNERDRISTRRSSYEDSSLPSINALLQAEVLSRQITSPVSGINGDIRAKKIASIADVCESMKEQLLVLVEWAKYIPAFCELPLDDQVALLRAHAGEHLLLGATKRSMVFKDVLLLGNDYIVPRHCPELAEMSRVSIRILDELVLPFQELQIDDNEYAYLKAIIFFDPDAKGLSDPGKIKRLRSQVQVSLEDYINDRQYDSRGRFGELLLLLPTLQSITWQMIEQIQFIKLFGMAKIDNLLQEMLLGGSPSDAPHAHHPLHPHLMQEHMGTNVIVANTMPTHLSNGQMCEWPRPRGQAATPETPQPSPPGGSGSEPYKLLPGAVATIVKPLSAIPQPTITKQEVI
Sequence of Paired box protein Pax-8 (Q06710 whole entry): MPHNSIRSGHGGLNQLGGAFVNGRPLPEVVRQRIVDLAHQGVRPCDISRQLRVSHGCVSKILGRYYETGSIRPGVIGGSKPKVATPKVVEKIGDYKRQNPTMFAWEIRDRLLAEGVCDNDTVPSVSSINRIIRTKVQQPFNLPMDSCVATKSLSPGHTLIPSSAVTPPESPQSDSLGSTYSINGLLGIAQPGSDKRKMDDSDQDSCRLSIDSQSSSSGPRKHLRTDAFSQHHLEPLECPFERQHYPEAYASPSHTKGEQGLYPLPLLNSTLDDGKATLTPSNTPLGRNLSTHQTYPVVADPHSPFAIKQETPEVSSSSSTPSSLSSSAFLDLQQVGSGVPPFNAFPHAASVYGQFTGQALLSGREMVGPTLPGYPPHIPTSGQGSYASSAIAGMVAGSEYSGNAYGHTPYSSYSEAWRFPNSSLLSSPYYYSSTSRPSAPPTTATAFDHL

COc1ccccc1NC(=O)CCS(=O)(=O)c1ccc2c(c1)NC(=O)C(C)S2 (configuration not stated)
EC50 [1]: > 100 µM (inactive)

CCOC(=O)c1c(C)oc2c1c(CN1CCN(CCO)CC1)c(O)c1ccccc12
IC50 [2]: > 50 µM (not active)
IC50 [3]: 1.13 µM (active)
IC50 [4]: 2.31 µM (active)

CCc1ccc(OCC(=O)NC(N=C(S)Nc2ccccc2OC)C(Cl)(Cl)Cl)cc1 (configuration not stated)
IC50 [5]: > 64.6 µM (inactive)
IC50 [6]: > 64.6 µM (inactive)
EC50 [7]: 9.76 µM (active)
EC50 [8]: 9.32 µM (active)

O=c1[nH]c2cnc(-n3cnc4ccc(F)cc43)nc2n1C1CCOc2c(F)cccc21 (configuration not stated)
Ki [9]: 0.00501 µM (active)
Ki [10]: 0.00501 µM (active)

CCc1cc(=O)oc2c(C)c(OCC(=O)NCCN3CCOCC3)ccc12
IC50 [11]: 35.9 µM (inactive)
IC50 [12]: 9.97 µM (active)
IC50 [13]: 35.9 µM (inactive)

CCOC(=O)N1CCN(CCC(=O)c2ccc(OC)cc2)CC1
IC50 [5]: > 64.5 µM (inactive)
IC50 [6]: > 64.5 µM (inactive)

C=C1C(=O)[C@]23C[C@H]1CC[C@H]2[C@]1(C)[C@@H](OC(C)=O)CC[C@@](C)(C(=O)O)[C@H]1C[C@@H]3O
EC50 [14]: > 91.3 µM (inactive)
IC50 [15]: 0.293 µM (active)
EC50 [16]: > 91.3 µM (inactive)
AC50 [17]: 4.07 µM (active)
IC50 [18]: > 79 µM (inactive)

Cc1cc(C)c(/N=C2\CCCN2Cc2ccccc2)c(C#N)c1
IC50 [19]: 1.99 µM (active)
IC50 [20]: > 100 µM (not active)
